For the assay, the target named is T1, hCRTH2 (Homo sapiens, UniProt Q9Y5Y4).
T1 construct: expressed in transfected cells; host or cells: HEK (human embryonic kidney) cells expressing hCRTH2; membrane preparation
T1 sequence (Q9Y5Y4 1-395): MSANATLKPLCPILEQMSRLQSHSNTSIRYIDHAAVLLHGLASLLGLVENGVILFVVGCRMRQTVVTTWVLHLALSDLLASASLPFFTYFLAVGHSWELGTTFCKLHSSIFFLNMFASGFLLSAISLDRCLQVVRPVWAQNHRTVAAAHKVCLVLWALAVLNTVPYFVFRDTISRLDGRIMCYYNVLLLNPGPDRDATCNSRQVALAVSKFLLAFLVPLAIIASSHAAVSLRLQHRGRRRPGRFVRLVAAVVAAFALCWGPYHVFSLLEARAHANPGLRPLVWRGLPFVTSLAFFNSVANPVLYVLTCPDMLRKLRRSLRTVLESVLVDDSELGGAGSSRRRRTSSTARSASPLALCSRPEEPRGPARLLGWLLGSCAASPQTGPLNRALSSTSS
Kind of assay: Radioligand binding assay ([3H]PGD2 competition, HEK-hCRTH2 membranes). Particulars: [3H]PGD2 competition, Table B. The method, boiled down:
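Displacement of 3.0 nM [3H]PGD2 from human CRTH2 expressed in HEK membranes was measured at room temperature over 60 min. Unlabelled PGD2 at 10 μM gave non-specific binding.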

As for `O=C(O)CCCCc1nc2cc(C(=O)N[C@H]3CCc4cc(F)ccc43)ccc2nc1-c1ccc(Cl)cc1` [compound 382, (S)-5-(3-(4-chlorophenyl)-7-((5-fluoro-2,3-dihydro-1H-inden-1-yl)carbamoyl)quinoxalin-2-yl)pentanoic acid], the inhibition constant Ki is 0.1 to 2 nM. For `O=C(O)CCCCc1nc2cc(C(=O)N[C@@H]3CCc4cc(Cl)ccc43)ccc2nc1-c1ccc(Cl)cc1` [compound 383, (R)-5-(7-((5-chloro-2,3-dihydro-1H-inden-1-yl)carbamoyl)-3-(4-chlorophenyl)quinoxalin-2-yl)pentanoic acid] the value was 0.1 to 2 nM.

Regarding `O=C(O)CCCCc1nc2cc(C(=O)N[C@H]3CCc4cc(Cl)ccc43)ccc2nc1-c1ccc(Cl)cc1` [compound 384, (S)-5-(7-((5-chloro-2,3-dihydro-1H-inden-1-yl)carbamoyl)-3-(4-chlorophenyl)quinoxalin-2-yl)pentanoic acid], the Ki lay within 0.1 to 2 nM. For `O=C(O)CCCCc1nc2cc(C(=O)N[C@H]3CCCc4cc(F)ccc43)ccc2nc1-c1ccccc1` [compound 385, (S)-5-(7-((6-fluoro-1,2,3,4-tetrahydronaphthalen-1-yl)carbamoyl)-3-phenylquinoxalin-2-yl)pentanoic acid] the value was 2.1 to 20 nM; for `O=C(O)CCCCc1nc2cc(C(=O)N[C@@H]3CCCc4cc(Cl)ccc43)ccc2nc1-c1ccccc1` [compound 386, (R)-5-(7-((6-chloro-1,2,3,4-tetrahydronaphthalen-1-yl)carbamoyl)-3-phenylquinoxalin-2-yl)pentanoic acid], 0.1 to 2 nM; for `O=C(O)CCCCc1nc2cc(C(=O)N[C@H]3CCCc4cc(Cl)ccc43)ccc2nc1-c1ccccc1` [compound 387, (S)-5-(7-((6-chloro-1,2,3,4-tetrahydronaphthalen-1-yl)carbamoyl)-3-phenylquinoxalin-2-yl)pentanoic acid], 2.1 to 20 nM. In the case of `O=C(O)CCCCc1nc2cc(C(=O)N[C@H]3CCCc4ccccc43)ccc2nc1-c1ccccc1` [compound 388, (S)-5-(3-phenyl-7-((1,2,3,4-tetrahydronaphthalen-1-yl)carbamoyl)quinoxalin-2-yl)pentanoic acid], the Ki fell in the range of 2.1 to 20 nM. In turn, `COc1ccc(C2CN(C(=O)c3ccc4nc(-c5ccccc5)c(CCCCC(=O)O)nc4c3)C2)cc1` [compound 389, 5-(7-(3-(4-methoxyphenyl)azetidine-1-carbonyl)-3-phenylquinoxalin-2-yl)pentanoic acid] showed a Ki of 0.1 to 2 nM. In turn, `COc1cccc(C2CN(C(=O)c3ccc4nc(-c5ccccc5)c(CCCCC(=O)O)nc4c3)C2)c1` [compound 390, 5-(7-(3-(3-methoxyphenyl)azetidine-1-carbonyl)-3-phenylquinoxalin-2-yl)pentanoic acid] displayed a Ki of 0.1 to 2 nM. As for `CC(CCCc1nc2cc(C(=O)N[C@H](C)c3ccc(Cl)cc3)ccc2nc1-c1ccc(Cl)cc1)C(=O)O` (stereo partly drawn) [compound 391, 5-(3-(4-chlorophenyl)-7-(((R)-1-(4-chlorophenyl)ethyl)carbamoyl)quinoxalin-2-yl)-2-methylpentanoic acid], the Ki is 2.1 to 20 nM.

On to `CC(CCCc1nc2cc(C(=O)N[C@@H](C)c3ccc(Cl)cc3)ccc2nc1-c1ccc(Cl)cc1)C(=O)O` (stereo partly drawn) [compound 392, 5-(3-(4-chlorophenyl)-7-(((S)-1-(4-chlorophenyl)ethyl)carbamoyl)quinoxalin-2-yl)-2-methylpentanoic acid], for which the Ki was in the range of 2.1 to 20 nM.

In turn, `Cc1ccc(CNC(=O)c2ccc3nc(-c4ccc(Cl)cc4)c(CC4CCC(C(=O)O)C4)nc3c2)cc1` (centres unmarked) [compound 393, 3-((3-(4-chlorophenyl)-7-((4-methylbenzyl)carbamoyl)quinoxalin-2-yl)methyl)cyclopentane-carboxylic acid] registered a Ki of 2.1 to 20 nM. Regarding `C[C@@H](NC(=O)c1ccc2nc(-c3ccc(Cl)cc3)c(CC3CCC(C(=O)O)C3)nc2c1)c1ccccc1` (stereo partly drawn) [compound 394, 3-((3-(4-chlorophenyl)-7-(((R)-1-phenylethyl)carbamoyl)quinoxalin-2-yl)methyl)cyclopentane-carboxylic acid], the Ki is 2.1 to 20 nM.

On to `O=C(N[C@H](c1ccccc1)C(F)(F)F)c1ccc2nc(-c3ccc(Cl)cc3)c(CC3CCC(C(=O)O)C3)nc2c1` (stereo partly drawn) [compound 395, 3-((3-(4-chlorophenyl)-7-(((R)-2,2,2-trifluoro-1-phenylethyl)carbamoyl)quinoxalin-2-yl)methyl)cyclopentane-carboxylic acid], for which the Ki lay in the range of 2.1 to 20 nM. Take `O=C(O)C1CCC(Cc2nc3cc(C(=O)N4CC(c5ccc(F)cc5)C4)ccc3nc2-c2ccc(Cl)cc2)C1` (centres unmarked) [compound 396, 3-((3-(4-chlorophenyl)-7-(3-(4-fluorophenyl)azetidine-1-carbonyl)quinoxalin-2-yl)methyl)cyclopentanecarboxylic acid]: the Ki fell in the range of 2.1 to 20 nM. `O=C(O)C1CCC(Cc2nc3cc(C(=O)N4CC(c5cccc(F)c5)C4)ccc3nc2-c2ccc(Cl)cc2)C1` (centres unmarked) [compound 397, 3-((3-(4-chlorophenyl)-7-(3-(3-fluorophenyl)azetidine-1-carbonyl)quinoxalin-2-yl)methyl)cyclopentane-carboxylic acid] gave a Ki of 2.1 to 20 nM.

For `O=C(O)C1CCC(Cc2nc3cc(C(=O)N4CC(c5ccc(F)c(F)c5)C4)ccc3nc2-c2ccc(Cl)cc2)C1` (centres unmarked) [compound 398, 3-((3-(4-chlorophenyl)-7-(3-(3,4-difluorophenyl)azetidine-1-carbonyl)quinoxalin-2-yl)methyl)cyclopentane-carboxylic acid], the Ki is 2.1 to 20 nM. As for `CC(C)[C@@H](NC(=O)c1ccc2nc(-c3ccc(Cl)cc3)c(CCCCC(=O)O)nc2c1)c1ccc(F)cc1` [compound 399, (R)-5-(3-(4-chlorophenyl)-7-((1-(4-fluorophenyl)-2-methylpropyl)carbamoyl)quinoxalin-2-yl) pentanoic acid], the Ki was in the range of 2.1 to 20 nM. With `N#Cc1ccc(C2CN(C(=O)c3ccc4nc(-c5ccc(Cl)cc5)c(CC5CCC(C(=O)O)C5)nc4c3)C2)cc1` (centres unmarked) [compound 400, 3-((3-(4-chlorophenyl)-7-(3-(4-cyanophenyl)azetidine-1-carbonyl)quinoxalin-2-yl)methyl)cyclopentane-carboxylic acid], the Ki lay in the range of 2.1 to 20 nM. For `O=C(N[C@H](c1ccc(Cl)cc1)C(F)(F)F)c1ccc2nc(-c3ccc(Cl)cc3)c(CC3CCC(C(=O)O)C3)nc2c1` (some centres unmarked) [compound 401] the value was 20.1 to 200 nM. For `CC(C)[C@H](NC(=O)c1ccc2nc(-c3ccc(Cl)cc3)c(CCCCC(=O)O)nc2c1)c1ccc(F)cc1` [compound 402, (S)-5-(3-(4-chlorophenyl)-7-((1-(4-fluorophenyl)-2-methylpropyl)carbamoyl)quinoxalin-2-yl) pentanoic acid] the value was 2.1 to 20 nM. Take `C[C@@H](NC(=O)c1ccc2nc(-c3ccc(Cl)cc3)c(CCCCC(=O)O)nc2c1)c1ccc(C#N)cc1` [compound 403, (R)-5-(3-(4-chlorophenyl)-7-((1-(4-cyanophenyl)ethyl)carbamoyl)quinoxalin-2-yl)pentanoic acid]: the Ki is 0.1 to 2 nM. Regarding `C[C@H](NC(=O)c1ccc2nc(-c3ccc(Cl)cc3)c(CC3CCC(C(=O)O)C3)nc2c1)c1ccccc1` (stereo partly drawn) [compound 404, 3-((3-(4-chlorophenyl)-7-(((S)-1-phenylethyl)carbamoyl)quinoxalin-2-yl)methyl)cyclopentane-carboxylic acid], the Ki lay in the range of 2.1 to 20 nM.

Broadly, the Ki is the equilibrium dissociation constant of an inhibitor or competing ligand from its target.

The record behind these values is patent publication US9469615B2, “Quinoxalines and AZA-quinoxalines as CRTH2 receptor modulators” (Merck Sharp & Dohme Corp., priority 2010, dated 2016).
